Source: paper PMC10788917 (Journal of Medicinal Chemistry, 2023)
Residue numbers refer to the chain shown, from its start. Each block holds one compound with its values, some of them ahead of it.

Key:
Experiment in all cases: HDAC8 mutant biochemical assay
[1] = biological target: T1, HDAC8 Cys102Ser/Cys153Ser/Cys287Ser (Homo sapiens, UniProt Q9BY41, C102S/C153S/C287S); settings: read-out: IC50 [μM] @ 100 nM HDAC8: G Cys102Ser/Cys153Ser/Cys287Ser, 1 h preincubation
T1 construct: made in house
T1 sequence (Q9BY41 1-377 C102S/C153S/C287S): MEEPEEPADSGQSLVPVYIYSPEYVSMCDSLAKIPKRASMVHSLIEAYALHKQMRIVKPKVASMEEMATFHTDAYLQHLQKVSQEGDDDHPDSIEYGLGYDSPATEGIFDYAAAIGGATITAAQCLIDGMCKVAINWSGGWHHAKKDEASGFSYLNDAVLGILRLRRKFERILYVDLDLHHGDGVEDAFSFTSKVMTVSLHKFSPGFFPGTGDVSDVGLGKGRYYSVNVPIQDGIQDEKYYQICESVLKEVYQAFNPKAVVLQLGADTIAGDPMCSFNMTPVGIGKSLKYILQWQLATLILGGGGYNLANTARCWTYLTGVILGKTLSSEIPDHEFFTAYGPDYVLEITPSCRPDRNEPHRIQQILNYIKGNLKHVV
Method: (§1) HDAC8 mutant variants were generated, produced, and further purified as described previously.[32] Cysteines 28 and 314 were exchanged with serine using the following primer pairs: HD8_C28S_for, […]; HD8_C28S_rev, […]; HD8_C314S_for, […]; HD8_C314S_rev, […].
(§2) The enzyme activity assay was performed in assay buffer [25 mM Tris-HCl (pH 8.0), 50 mM NaCl, and 0.001% (v/v) Pluronic F-68] in black half-area 96-well microplates (Greiner Bio-One). For the initial screening, 10 nM HDAC8 was preincubated with the indicated compounds at 250 μM for 2 h at 30 °C. […] The reaction was initiated by the addition of 20 μM Boc-Lys(TFA)-AMC (Bachem). After substrate conversion at 30 °C for 15 min for HDAC8 and 1 h for HDAC8 mutants and HDAC4, the reaction was stopped by adding 1.67 μM suberoylanilide trifluoromethylketone (SATFMK). The deacetylated substrate was cleaved with 0.42 mg/mL trypsin to release fluorescent 7-amino-4-methylcoumarin (AMC), which was detected with a microplate reader (PHERAstar FS […]) with fluorescence excitation at 360 nm and emission at 460 nm. IC50 values were calculated by generating dose–response curves in GraphPad Prism 6 and fitting those to a four-parameter logistic model.

[2] = biological target: T2, HDAC8 Cys102Ser/Cys153Ser/Cys275Ser (Homo sapiens, UniProt Q9BY41, C102S/C153S/C275S); settings: read-out: IC50 [μM] @ 100 nM HDAC8: F Cys102Ser/Cys153Ser/Cys275Ser, 1 h preincubation
T2 construct: made in house
T2 sequence (Q9BY41 1-377 C102S/C153S/C275S): T1 sequence (Q9BY41 1-377 C102S/C153S/C287S) with C275S, S287C
Method: as §1, §2

[3] = biological target: T3, HDAC8 Cys102Ser/Cys153Ser/Cys352Ser (Homo sapiens, UniProt Q9BY41, C102S/C153S/C352S); settings: read-out: IC50 [μM] @ 100 nM HDAC8: I Cys102Ser/Cys153Ser/Cys352Ser, 1 h preincubation
T3 construct: made in house
T3 sequence (Q9BY41 1-377 C102S/C153S/C352S): T1 sequence (Q9BY41 1-377 C102S/C153S/C287S) with S287C, C352S
Method: as §1, §2

[4] = biological target: T4, HDAC8 Cys102Ser/Cys153Ser/Cys244Ser (Homo sapiens, UniProt Q9BY41, C102S/C153S/C244S); settings: read-out: IC50 [μM] @ 100 nM HDAC8: E Cys102Ser/Cys153Ser/Cys244Ser, 1 h preincubation
T4 construct: made in house
T4 sequence (Q9BY41 1-377 C102S/C153S/C244S): T1 sequence (Q9BY41 1-377 C102S/C153S/C287S) with C244S, S287C
Method: as §1, §2

Structure (SMILES): C[n+]1ccccc1I [A3+]
IC50 [1]: > 130 µM
IC50 [2]: 24 ± 3 µM
IC50 [3]: 36 ± 2 µM
IC50 [4]: > 130 µM

Structure (SMILES): C[n+]1cccnc1Cl [D1+]
IC50 [1]: > 130 µM
IC50 [2]: 13 ± 3 µM
IC50 [3]: 41 ± 7 µM
IC50 [4]: > 130 µM

Structure (SMILES): C[n+]1cccnc1Br [D2+]
IC50 [1]: > 130 µM
IC50 [2]: 35 ± 14 µM
IC50 [3]: 15 ± 2 µM
IC50 [4]: > 130 µM

Structure (SMILES): C[n+]1cccnc1I [D3+]
IC50 [1]: 51 ± 7 µM
IC50 [2]: 16 ± 2 µM
IC50 [3]: 11 ± 1 µM
IC50 [4]: 40 ± 6 µM

Structure (SMILES): C[n+]1cncc(Br)c1 [F2+]
IC50 [1]: 95 ± 8 µM
IC50 [2]: 19 ± 4 µM
IC50 [3]: 15 ± 1 µM
IC50 [4]: 87 ± 7 µM

Structure (SMILES): C[n+]1cncc(I)c1 [F3+]
IC50 [1]: > 130 µM
IC50 [2]: 15 µM
IC50 [3]: 29 ± 6 µM
IC50 [4]: 26 ± 4 µM

Next, values leading:

IC50 [1]: > 130 µM
IC50 [2]: 17 ± 1 µM
IC50 [3]: 29 ± 2 µM
IC50 [4]: > 130 µM
Structure (SMILES): C[n+]1ccc(I)cc1 [C3+]

IC50 [1]: 34 ± 2 µM
IC50 [2]: 4.2 ± 0.3 µM
IC50 [3]: 9 ± 1 µM
IC50 [4]: 24 ± 3 µM
Structure (SMILES): C#Cc1cc[n+](C)cc1 [C6+]

IC50 [1]: > 130 µM
IC50 [2]: 107 ± 10 µM
IC50 [3]: 118 ± 13 µM
IC50 [4]: > 130 µM
Structure (SMILES): C#Cc1nccc[n+]1C [D6+]

IC50 [1]: 73 ± 6 µM
IC50 [2]: 64 ± 16 µM
IC50 [3]: 59 ± 3 µM
IC50 [4]: 100 ± 12 µM
Structure (SMILES): C#Cc1c[n+](C)ccn1 [G6+]
